In publication PMC5978884, “Dissection of the antimicrobial and hemolytic activity of Cap18: Generation of Cap18 derivatives with enhanced specificity” (PLoS ONE, 2018):
In brackets after ≈: the same amount, converted by molar mass. Like-named read-outs stand apart in the source and are kept apart here. Where no end group is shown, it is not given here.

Experiments:
Format in all cases: cell-based
[1] = test system: Salmonella enterica serovar Typhimurium LT2; experiment: microbe, parasite or virus in culture; conditions: for MIC S. Typhimurium / MIC S. Typhimurium LT2: LT2; for MIC: Salmonella enterica, TYPHIMURIUM, read-out: MIC Salmonella Typhimurium LT2
Method: (§1) All strains were grown in Mueller-Hinton-II medium, except L. monocytogenes which was grown in BHI medium and L. lactis which was grown in MRS medium. Incubation took place aerobically at 37°C, except for Y. ruckeri and A. salmonicida, which were grown aerobically at RT (20 °C), and L. lactis grown aerobically at 30°C. All plates were incubated for 16–21 hours.
(§2) The minimum inhibitory concentrations (MICs) of the AMPs were measured in 96-well microtiter plates according the Clinical and Laboratory Standards Institute (CLSI, formerly National Committee for Clinical Laboratory Standards [NCCLS]). Briefly, liquid Mueller-Hinton-II medium containing increasing concentrations of AMPs is inoculated with a defined number of cells (approx. 10^5 CFUs/ml) in 96-well microtiter plates (polypropylene), whereas each plate also includes a positive growth control and a negative control (sterile control). The range of peptide concentrations analyzed was 0.125–64 μg/ml for the high purity peptides and 0.06–32 μg/ml for peptides of the variant library. After incubation, the MIC is determined by the lowest concentration showing no visible growth. All plates were incubated for 16–20 hours. The MIC of the reference antibiotics was determined by the use of Sensititre panels (Trek Diagnostic Systems Ltd, East Grinstead, UK).

[2] = test system: Yersinia ruckeri 392/2003; experiment: microbe, parasite or virus in culture; conditions: for MIC: Yersinia ruckeri, 392/2003, read-out: MIC Yersinia ruckeri 392/2003
Method: as §1, §2

[3] = test system: Aeromonas salmonicida ATCC33658; experiment: microbe, parasite or virus in culture; conditions: for MIC: Aeromonas salmonicida
Method: as §1, §2

[4] = test system: Lactococcus lactis IL1403
Method: as §1, §2

[5] = test system: Enterococcus faecalis ATCC29212
Method: as §1, §2

[6] = test system: Escherichia coli ATCC25922
Method: as §1, §2

[7] = test system: Listeria monocytogenes N22-2
Method: as §1, §2

[8] = test system: Pseudomonas aeruginosa ATCC27853
Method: as §1, §2

[9] = ATCC33658, read-out: MIC Aermononas salmonicida ATCC33658
[10] = standard antibiotics, Sensititre panels, triplicates, ≤ = sensitive to lowest concentration in plate

Row | Compound | MIC S. Typhimurium [1] [µg/mL] | MIC S. Typhimurium LT2 [1] [µg/mL] | MIC Y. ruckeri [2] [µg/mL] | MIC Y. ruckeri 392/2003 [2] [µg/mL] | MIC A. salmonicida ([3]; ATCC33658) [µg/mL] | MIC A. salmonicida ATCC33658 ([3]; ATCC33658) [µg/mL] | MIC L. lactis IL1403 [4] [µg/mL] | MIC E. faecalis ATCC29212 [5] [µg/mL] | MIC E. coli ATCC25922 [6] [µg/mL] | MIC L. monocytogenes N22-2 [7] [µg/mL] | MIC P. aeruginosa ATCC27853 [8] [µg/mL] | other results
1 | GLRKRLRKFRNKIKEKLKKICQKIQGLLPKLAPRTDY [Peptide 23] | 8 | 16 | 4 | 16 | 4 | 16 to 32 | ≥64 | 32 | 16 | 16 | 32 | 
2 | GLRKRLRKFRNKIKEKLKKNGQKIQGLLPKLAPRTDY [Peptide 22] | 4 | 8 to 16 | 16 | ≥64 | 4 | 16 | ≥64 | ≥64 | ≥64 | 16 to 32 | 8 to 16 | 
3 | GLRKRLRKFRNKQKEKLKKIGQKIQGLLPKLAPRTDY [Peptide 7] | 4 | 4 to 8 |  | 8 | 4 | 8 | ≥64 | 32 | 16 to 32 | 16 | 8 | 
4 | GLRKRLRKFRNKIKEKLKKIGQKIQGLLPKCAPRTDY [Peptide L31C] |  |  | 4 |  | 4 |  |  |  |  |  |  | MIC L. lactis [4]: 8 µg/mL
5 | GLRKRLRKFRNKIKEKLKKILQKIQGLLPKLAPRTDY [Peptide 24] | 8 | 16 | 4 | 16 | 4 | 16 | ≥64 | 16 | 16 | 16 | 16 | 
6 | GLRKRLRKFRNKIKEKLKKQGQKIQGLLPKLAPRTDY [Peptide I20Q] | 8 |  | 8 |  | 8 |  |  |  |  |  |  | 
7 | GLRKRLRKFRNKIKEKLKKHGQKIQGLLPKLAPRTDY [Peptide 21] | 2 | 8 | 8 | 16 | 2 | 4 | 32 | ≥64 | 32 | 16 | 8 | 
8 | GLRKRRRKFRNKIKEKLKKIGQKIQGLLPKLAPRTDY [Peptide L6R] | 8 |  | 16 |  | 16 |  |  |  |  |  |  | 
9 | GLRKRLRKFRNKIKEKLKKIGQKGQGLLPKLAPRTDY [Peptide 27] | 4 | 8 to 16 | 16 | 32 | 8 | 8 | ≥64 | ≥64 | ≥64 | 32 | 16 | 
10 | GLRKRLRKFRNKIKEKLKKIGQKIQTLLPKLAPRTDY [Peptide 30] |  | 4 to 8 |  | 2 to 4 |  | 4 | 2 | 8 | 4 to 8 | 4 | 8 | 
11 | GLRKRLRKFRNKFKEKLKKIGQKIQGLLPKLAPRTDY [Peptide 4] |  | 4 |  | 2 |  | 4 | 2 | 8 to 16 | 4 to 8 | 4 | 4 to 8 | 
12 | GLRKRPRKFRNKIKEKLKKIGQKIQGLLPKLAPRTDY [Peptide 1] | 4 | 8 |  | 64 | 8 | 8 to 16 | ≥64 | 32 | 8 | 32 | ≥64 | MIC L. lactis [4]: 8 µg/mL
13 | GLRKRDRKFRNKIKEKLKKIGQKIQGLLPKLAPRTDY [Peptide L6D] | 8 |  |  |  | 16 |  |  |  |  |  |  | MIC L. lactis [4]: 16 µg/mL
14 | GLRKRLRKFRNKIKEKHKKIGQKIQGLLPKLAPRTDY [Peptide L17H] | 8 |  |  |  | 8 |  |  |  |  |  |  | 
15 | CNC(C)C1CCC(N)C(OC2C(N)CC(N)C(OC3OCC(C)(O)C(NC)C3O)C2O)O1 (stereo not shown) [Gentamicin, reference compound] |  |  |  |  |  |  |  |  |  |  |  | MIC [1]: 0.5 to 1 µg/mL (≈ 1.05 to 2.09 µM); MIC [2]: 1 to 2 µg/mL (≈ 2.09 to 4.19 µM); MIC [3, 9]: 1 µg/mL (≈ 2.09 µM)
16 | GLRKRLRKFRNKIKEKLKKIGQKIQGLLPKLAPRTDD [Peptide Y37D] |  |  | 2 |  | 2 |  |  |  |  |  |  | MIC L. lactis [4]: 8 µg/mL
17 | CCn1cc(C(=O)O)c(=O)c2ccc(C)nc21 [Nalidixic acid, reference compound] |  |  |  |  |  |  |  |  |  |  |  | MIC [1]: ≤ 4 µg/mL; MIC [2]: 32 µg/mL (≈ 138 µM); MIC [3, 9]: ≤ 4 µg/mL
18 | Polymyxin E [reference compound] |  |  |  |  |  |  |  |  |  |  |  | MIC Salmonella Typhimurium LT2 [1, 10]: 2 µg/mL; MIC Yersinia ruckeri 392/2003 ([2]; standard antibiotics, Sensititre panels, triplicates): 1 to 2 µg/mL; MIC Aermononas salmonicida ATCC33658 [3, 10]: 2 µg/mL
19 | GLRKRLRKFRNKIKEKLKKIGQKHQGLLPKLAPRTDY [Peptide I24H] | 8 |  |  |  | 8 |  |  |  |  |  |  | 
20 | GLRKRLRKFRNKNKEKLKKIGQKIQGLLPKLAPRTDY [Peptide I13N] | 8 |  |  |  | 8 |  |  |  |  |  |  | 
21 | GLRKRLRKFRNKIKEKLKKIIQKIQGLLPKLAPRTDY [Peptide G21I] | 8 |  | 8 |  | 8 |  |  |  |  |  |  | 
22 | GLRKRLRKFRNKIKEKCKKIGQKIQGLLPKLAPRTDY [Peptide L17C] | 8 |  |  |  | 8 |  |  |  |  |  |  | 
23 | GLRKRLRKFRNKIKEKLKKIGQKIQGLLPKLAPRHDY [Peptide T35H] |  |  | 2 |  | 2 |  |  |  |  |  |  | MIC L. lactis [4]: 8 µg/mL
24 | CC1(C)S[C@@H]2[C@H](NC(=O)[C@H](N)c3ccccc3)C(=O)N2[C@H]1C(=O)O [Ampicillin, reference compound] |  |  |  |  |  |  |  |  |  |  |  | MIC [1, 10]: ≤ 1 µg/mL; MIC [2]: 2 µg/mL (≈ 5.72 µM); MIC ([3]; ATCC33658, standard antibiotics, Sensititre panels, triplicates, ≤ = sensitive to lowest concentration in plate, read-out: MIC Aermononas salmonicida ATCC33658): ≤ 1 µg/mL
25 | GLRKRLRKFRNKIKEKLKKRGQKIQGLLPKLAPRTDY [Peptide I20R] | 8 |  | 16 |  | 16 |  |  |  |  |  |  | 
